Measured values from patent publication US20250130239A1, “PROTEIN DEGRADER” (University of Dundee, priority 2021, published 2025).

Tests used:
BromoTag-Brd2 = target: T1, BromoTag-Brd2 (Homo sapiens, UniProt O60885+P40337, L387A); assay: Time-course degradation assay in heterozygous BromoTag-Brd2 HEK293 cells; assay type: cell-based; conditions: 500 nM
T1 construct: comprising residues 368-440 of human Brd4; Brd2 (endogenous protein, fusion partner in the same polypeptide); eGFP-P2A (upstream marker in the knock-in cassette) (N, cleaved yes); expressed in transfected cells; host or cells: HEK293, heterozygous CRISPR knock-in at the endogenous BRD2 locus
T1 sequence (P40337 whole entry, other chains not shown, the tested form may be a part): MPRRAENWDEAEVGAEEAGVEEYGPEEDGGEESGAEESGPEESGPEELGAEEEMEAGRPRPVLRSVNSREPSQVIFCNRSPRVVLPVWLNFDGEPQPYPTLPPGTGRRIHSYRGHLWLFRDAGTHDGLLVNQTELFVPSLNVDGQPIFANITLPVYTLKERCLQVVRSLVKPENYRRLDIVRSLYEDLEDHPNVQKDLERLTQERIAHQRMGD
Procedure: Time-course Degradation Assay. Time-course degradation assays using PROTACs AGB1, AGB2, and AGB3 were performed on the genotype verified heterozygous BromoTag-Brd2 HEK293 cell line. Heterozygous BromoTag-Brd2 HEK293 cells were plated at a density of 5×10^5 cells per well of a 6 healthy plate a day prior to initiation of the Timecourse assay. PROTAC's AGB1 & AGB2 were diluted in DMSO to a concentration of 1 mM prior to being further diluted 1:2000 in 2 mL of DMEM to a concentration of 500 nM per timepoint. PROTAC AGB3 was diluted in DMSO to a concentration of 2 mM prior to being further diluted 1:2000 in 2 mL of DMEM to a concentration of 1 μM per timepoint. Timepoint range was between 0-36 h. Treatment was applied in a staggered fashion to enable all timepoints to be harvested at the same time.
Western Blotting. All cells were harvested on ice with RIPA lysis, and extraction buffer (ThermoFisher Scientific, 89901) supplemented with protease inhibitor cocktail (Merck, 11697498001) and Benzonase® Nuclease (Sigma, E1014) before being store at −20° C. prior to use. Total protein quantity was determined using the BCA protein assay (#23225, Pierce, Rockford, Illinois). Protein concentration was determined using the BCA assay (ThermoFisher Scientific, 23225). Samples were then prepared and loaded onto NuPAGE™ 4-12% Bis-Tris Midi gels (ThermoFisher Scientific, WG1403A), followed by the transfer of the proteins onto nitrocellulose membranes (EMD Millipore). The membranes were blocked for 1 h prior to incubation with the primary antibodies using 5% Milk TBST. Membranes were probed for Brd2 (Abcam, Ab139690, 1:1000), Brd3 (Abcam, Ab50818, 1:4000), Brd4 (Abcam, Ab128874, 1:1000) or our polyclonal Brd4^BD2 L387A antibody. […] All western blots were analysed for band intensities using Image Lab from Bio-Rad (LI-COR, Biosciences). The data extracted from these blots were then plotted and analysed using Prism (v. 8.2.0, GraphPad).

Plasma stability = assay type: in vitro ADME; conditions: mouse plasma, 37° C., over 1 h
Procedure: Plasma Stability. Plasma stability studies were outsourced and undertaken by Shanghai ChemPartner Co., Ltd. Buffer preparation: A solution of 0.05 M sodium phosphate and 0.07 M NaCl buffer at pH 7.4 was made by dissolving 14.505 g/L Na2HPO4·12H2O, 1.483 g/L NaH2PO4·2H2O and 4.095 g/L NaCl in deionized water and the pH adjusted with phosphoric acid. Plasma preparation: Frozen mouse plasma was thawed by placing at 37° C. quickly. The thawed plasma was centrifuged at 3,000 rpm for 8 min to remove clots and the supernatant was pooled to be used as the plasma in the experiment. The plasma (pH 7.4-8.0) was stored on ice until used. […] Plasma and spiking solutions were pre-warmed at 37° C. for 5 min, then 10 μL of pre-warmed spiking solution B were added into the wells designated for all the time points (5, 15, 30, 45, 60 min). For 0-min, 400 μL of acetonitrile containing internal standards (Imipramine, Glipizide) were added to the wells of 0-min plate and then 90 μL of plasma was added. For the time points (0, 5, 15, 30, 45, 60 min), 90 μL of pre-warmed plasma was added to start timing. At 5, 15, 30, 45, 60 min, 400 μL of acetonitrile containing internal standard (Imipramine, Glipizide) were added to the wells of corresponding plates, respectively, to stop the reaction. […] Data was analysed with Microsoft Excel.

[1] = In vivo PK profiling of AGB1; design: species or system C57BL/6 male mice; conditions: SC (5 mg/kg), mice
Procedure: In Vivo PK Profiling. Pharmacokinetic profiling was outsourced and undertaken by Shanghai ChemPartner Co., Ltd. Six to eight-week-old, C57BL/6 male mice purchased from Jihui Laboratory Animal Co. LTD were used in the study. […] The animals were restrained manually at the designated time points (0.083, 0.25, 0.5, 1, 2, 4 and 8 h), approximately 110 μL of blood sample was collected via facial vein into K2EDTA tubes. Three mice per time point were used resulting in a total of […]. Blood sample was put on ice and centrifuged at 2000 g for 5 mins to obtain plasma sample within 15 min. Plasma samples were stored at approximately −70° C. until analysis. A 30 μL aliquot of plasma was added with 200 μL internal standard (Diclofenac, 40 ng/mL) in 1% formic acid in MeCN. The mixture was then vortexed for 1 min and then centrifuged for 10 min at 5800 rpm. 100 μL of supernatant was transferred to a new plate. 0.5 μL of solvent was injected to LC-MS/MS. LC-MS/MS instrument used: SCIEX LC-MS/MS-45 (Triple Quad 6500+). Data was analysed by WinNonLin and Microsoft Excel.

[2] = target: T2, VPS34/PK3C3 (Q8NEB9), BromoTag N-term (Homo sapiens, UniProt O60885+P40337, L387A); assay: Degradation of BromoTag'ed VPS34/PK3C3 by AGB1; assay type: cell-based
T2 construct: comprising residues 368-440 of human Brd4; VPS34/PK3C3 (endogenous protein, fusion partner in the same polypeptide); expressed in transfected cells
T2 sequence (P40337 whole entry, other chains not shown, the tested form may be a part): as above
Source text: Degradation of a variety of target proteins. […] We performed CRISPR knock-in of the BromoTag, as described, into the endogenous loci of five additional proteins. […] The target proteins of Table 6 are all different, are all known to have different cellular roles and function, intracellular expression, and distinctive turnover rates within cells.

For CC[C@@H](C(=O)OCCOCCOCCOCC(=O)N[C@H](C(=O)N1C[C@H](O)C[C@H]1C(=O)NCc1ccc(-c2scnc2C)cc1)C(C)(C)C)[C@@H]1N=C(c2ccc(Cl)cc2)c2c(sc(C)c2C)-n2c(C)nnc21 (single isomer, unassigned) [AGB1 (46)], the “time to completely degrade BromoTag-Brd2” value (BromoTag-Brd2) was no more than 6 h, the “plasma stability, levels remaining” value (Plasma stability) was “no significant changes” and the “F (%)” value [1] was 140%. It also gave a Dmax [2] greater than 99% and a pDC50 ([2]; BromoTag'ed VPS34/PK3C3, N-term tag) of 8.0.
